Data reported in BindingDB's records for doi:10.1021/np030086k (University of Mississippi, 2003).

Assay: Inhibition of LFA1:CD11a/CD18/ICAM1-mediated human HL60 cell adhesion to human HeLa cells expressing ICAM1 by fluorescence analysis

Going from `C=C1[C@@H](C)[C@H]2[C@H](Cc3ccccc3)NC(=O)[C@]23OC(=O)/C=C/[C@H](O)CCC[C@@H](C)C/C=C/[C@H]3[C@@H]1O` [CHEBI:23527] to `CC[C@H]1CN2CCc3cc(OC)c(OC)cc3[C@@H]2C[C@@H]1C[C@H]1NCCc2cc(O)c(OC)cc21` [CHEBI:3533], the IC50 rises from 11.4 µM to greater than 21.4 µM. The first is the more potent here.

Compound `CC[C@H]1CN2CCc3cc(OC)c(OC)cc3[C@@H]2C[C@@H]1C[C@H]1NCCc2cc(OC)c(OC)cc21` [6',7',10,11-tetramethoxyemetan] has an IC50 greater than 104 µM.
